The values that follow come from patent publication US20130059295A1 (priority 2011, published 2013).

Values after ≈ are worked out from the molar mass of the structure shown.

The target in one series is FadR (Escherichia coli, UniProt P0A8V6). The conditions noted are these: read-out: Kd of FadR binding to oleic acid; cited from earlier work.
Series [1] has as its system E. coli fadBA promoter (PfadBA). As to conditions: upon the addition of 5 mM oleic acid; cited from earlier work.
Series [2] relates to fatty acid biosensor plasmids in DH1 fadD knockout strain. Type of series: cell-based, E. coli. The conditions noted are these: up to the addition of 1 mM oleic acid.
Series [3] concerns fatty acid biosensor plasmids pLR-rfp and pAR-rfp in fadE knockout DH1 E. coli cells. In words: microbe, parasite or virus in culture. Type of series: cell-based.
Series [4] deals with fatty acid sensing strain (pBARk-RFP and pE8a-fadR in E. coli). In words: Fatty acid biosensor pBARk-RFP with pE8a-fadR, oleic acid added to growth media (Example 3). The series is classed as cell-based. The conditions noted are these: plasmid pBARk-RFP, over a broad range of oleic acid concentration, 12 hours.
The conditions of series [5]: cited from earlier work.
A further series addresses HucR. As to conditions: read-out: Kd (apparent), one value printed for the listed ligands; cited from earlier work.

FadR, sequence (P0A8V6 whole entry): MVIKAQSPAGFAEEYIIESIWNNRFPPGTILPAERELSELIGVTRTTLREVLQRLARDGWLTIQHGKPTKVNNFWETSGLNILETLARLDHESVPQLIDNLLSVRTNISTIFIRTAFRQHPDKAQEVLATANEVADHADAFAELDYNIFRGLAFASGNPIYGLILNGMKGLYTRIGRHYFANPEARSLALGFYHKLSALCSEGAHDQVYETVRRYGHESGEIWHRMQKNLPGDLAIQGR

With `CCCCCCCC/C=C\CCCCCCCC(=O)O` [oleic acid], at FadR, the Kd is 5 µM. Further, in series [1], the “increased expression level of PfadBA” value was 5 fold. Further, the “induction of RFP expression” value in series [2] is recorded as “no induction of RFP expression was detected”. Besides, the EC50 in series [3] (Escherichia coli, 12 h, read-out: apparent half maximal effective concentration (EC50)) was 35 to 60 µM. Moreover, the “fluorescence change upon the addition of oleic acid” value in series [3] (pAR-rfp, fadE knockout DH1 E. coli) stood at 60 fold. The “increase in fluorescence signal” value in series [4] is reported as “more than 50 fold”. Also, in series [5], the “solubility limit in aqueous solution” value is given as 5 mM (≈ 1410 µg/mL).
As for `O=C(O)c1ccccc1O` [salicylate], the Kd on HucR is 11.6 µM.
As for `O=c1[nH]c(=O)c2[nH]c(=O)[nH]c2[nH]1` [uric acid], the Kd on HucR is 11.6 µM.
